Measurements published in ChEMBL document CHEMBL5465560, “Selectivity Literature for EUbOPEN Chemogenomic Library” (2024).
Values belong to the molecule of their own block, whether it stands above or below them.

What was measured:
[1] = biological target: T1, Phosphatidylinositol 5-phosphate 4-kinase type-2 alpha (Homo sapiens) (UniProt P48426); settings: at 1 µM
T1 sequence (whole entry): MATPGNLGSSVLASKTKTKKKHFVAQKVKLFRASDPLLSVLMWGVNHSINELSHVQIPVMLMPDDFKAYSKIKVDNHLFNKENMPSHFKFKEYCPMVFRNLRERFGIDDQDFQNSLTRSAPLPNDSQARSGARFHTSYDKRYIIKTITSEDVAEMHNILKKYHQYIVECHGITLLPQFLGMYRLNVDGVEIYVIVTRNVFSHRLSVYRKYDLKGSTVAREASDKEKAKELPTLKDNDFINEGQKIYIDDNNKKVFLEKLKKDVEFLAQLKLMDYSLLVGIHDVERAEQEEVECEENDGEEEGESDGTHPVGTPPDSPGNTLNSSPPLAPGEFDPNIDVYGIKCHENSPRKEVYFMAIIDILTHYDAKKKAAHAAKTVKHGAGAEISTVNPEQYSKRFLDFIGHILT

[2] = biological target: T2, Aurora kinase A (Homo sapiens) (UniProt O14965); assay: Selectivity interaction (Upstate Kinase Profiler service (Millipore)) EUB0000056c STK6; settings: at 1 µM
T2 sequence (whole entry): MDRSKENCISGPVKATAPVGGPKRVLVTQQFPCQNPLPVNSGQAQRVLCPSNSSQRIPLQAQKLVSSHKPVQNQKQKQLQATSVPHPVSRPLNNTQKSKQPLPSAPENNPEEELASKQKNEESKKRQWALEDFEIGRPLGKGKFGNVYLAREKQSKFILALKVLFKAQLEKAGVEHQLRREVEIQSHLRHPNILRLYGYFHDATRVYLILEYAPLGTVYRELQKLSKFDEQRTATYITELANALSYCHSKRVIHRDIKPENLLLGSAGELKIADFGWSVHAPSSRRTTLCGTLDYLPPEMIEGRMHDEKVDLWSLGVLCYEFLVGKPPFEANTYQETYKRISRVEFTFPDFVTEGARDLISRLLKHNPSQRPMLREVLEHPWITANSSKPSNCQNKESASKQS

[3] = biological target: Mitogen-activated protein kinase kinase kinase 11 (Homo sapiens) (UniProt Q16584); assay: Selectivity interaction (ActivX KiNativ screen (kinase selectivity in THP-1 cell lysates)) EUB0000639a MAP3K11; assay type: subcellular; settings: lysate, at 0.2 µM
Mitogen-activated protein kinase kinase kinase 11 (Homo sapiens), sequence (Q16584 whole entry, looked up): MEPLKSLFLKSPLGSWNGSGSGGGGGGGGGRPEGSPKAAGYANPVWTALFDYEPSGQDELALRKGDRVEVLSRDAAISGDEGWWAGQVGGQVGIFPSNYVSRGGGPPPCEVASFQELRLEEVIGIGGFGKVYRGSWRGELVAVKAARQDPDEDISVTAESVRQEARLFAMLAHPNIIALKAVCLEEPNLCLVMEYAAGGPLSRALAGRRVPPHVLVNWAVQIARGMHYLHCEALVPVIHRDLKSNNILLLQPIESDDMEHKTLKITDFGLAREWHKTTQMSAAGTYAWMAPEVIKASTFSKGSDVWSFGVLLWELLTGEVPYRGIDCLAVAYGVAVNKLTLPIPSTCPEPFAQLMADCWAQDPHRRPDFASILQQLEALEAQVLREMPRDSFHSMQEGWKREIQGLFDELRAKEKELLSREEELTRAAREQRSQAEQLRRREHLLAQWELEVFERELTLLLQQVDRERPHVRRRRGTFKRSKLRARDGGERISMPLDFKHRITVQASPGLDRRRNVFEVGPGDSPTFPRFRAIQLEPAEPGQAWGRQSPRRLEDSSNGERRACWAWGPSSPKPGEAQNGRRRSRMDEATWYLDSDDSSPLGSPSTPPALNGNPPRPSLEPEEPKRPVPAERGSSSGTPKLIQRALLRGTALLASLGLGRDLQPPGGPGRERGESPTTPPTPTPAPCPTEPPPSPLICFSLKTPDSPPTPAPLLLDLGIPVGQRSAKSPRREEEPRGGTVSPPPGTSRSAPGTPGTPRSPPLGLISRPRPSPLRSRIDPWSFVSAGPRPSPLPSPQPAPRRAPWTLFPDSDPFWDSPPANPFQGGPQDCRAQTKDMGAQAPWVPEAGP

[4] = biological target: Cyclin-dependent kinase 7 (Homo sapiens, UniProt P50613); assay: Selectivity interaction (ActivX KiNativ screen (kinase selectivity in THP-1 cell lysates)) EUB0000639a CDK7; assay type: subcellular; settings: lysate, at 0.2 µM
Cyclin-dependent kinase 7, sequence (P50613 whole entry): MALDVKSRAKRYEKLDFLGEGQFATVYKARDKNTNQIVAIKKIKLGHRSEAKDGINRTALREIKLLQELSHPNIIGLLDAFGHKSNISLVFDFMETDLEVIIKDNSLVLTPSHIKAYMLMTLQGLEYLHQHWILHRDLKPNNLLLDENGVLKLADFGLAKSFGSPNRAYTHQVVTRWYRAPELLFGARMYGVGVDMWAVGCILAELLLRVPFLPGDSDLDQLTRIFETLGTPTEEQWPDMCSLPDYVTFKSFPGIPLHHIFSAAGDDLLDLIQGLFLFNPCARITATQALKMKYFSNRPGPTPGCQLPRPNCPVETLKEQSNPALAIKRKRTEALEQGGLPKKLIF

[5] = biological target: T3, Protein arginine N-methyltransferase 7 (Homo sapiens) (UniProt Q9NVM4); assay: Selectivity interaction (Methyltransferase screen (Scintillation proximity assays)) EUB0000255b PRMT7
T3 sequence (whole entry): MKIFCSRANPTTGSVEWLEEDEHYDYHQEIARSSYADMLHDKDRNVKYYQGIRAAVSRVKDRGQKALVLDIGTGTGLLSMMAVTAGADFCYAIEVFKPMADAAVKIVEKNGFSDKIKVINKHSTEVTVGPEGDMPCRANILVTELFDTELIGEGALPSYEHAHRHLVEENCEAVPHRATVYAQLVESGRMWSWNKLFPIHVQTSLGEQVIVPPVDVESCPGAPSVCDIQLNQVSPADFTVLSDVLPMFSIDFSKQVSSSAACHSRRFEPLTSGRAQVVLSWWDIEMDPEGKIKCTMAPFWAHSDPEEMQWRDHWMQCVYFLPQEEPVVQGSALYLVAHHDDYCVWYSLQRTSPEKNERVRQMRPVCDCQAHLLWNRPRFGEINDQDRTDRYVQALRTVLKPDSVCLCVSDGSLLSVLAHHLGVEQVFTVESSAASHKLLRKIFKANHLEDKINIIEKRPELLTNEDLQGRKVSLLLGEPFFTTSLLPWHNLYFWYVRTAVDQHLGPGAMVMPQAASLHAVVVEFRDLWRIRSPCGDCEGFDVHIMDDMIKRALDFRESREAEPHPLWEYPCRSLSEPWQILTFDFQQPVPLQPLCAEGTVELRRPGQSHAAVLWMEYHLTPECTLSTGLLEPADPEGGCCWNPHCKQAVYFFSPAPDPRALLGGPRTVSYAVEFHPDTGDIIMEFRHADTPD

[6] = tested on: Tyrosine-protein kinase ABL1 (Homo sapiens), P00519 [Y253F]; settings: at 10 µM
[7] = biological target: T4, Activin receptor type-1 (Homo sapiens) (UniProt Q04771); assay: Selectivity interaction (KinomeScan (DiscoverX)) EUB0000618a ACVR1; settings: at 10 µM
T4 sequence (whole entry): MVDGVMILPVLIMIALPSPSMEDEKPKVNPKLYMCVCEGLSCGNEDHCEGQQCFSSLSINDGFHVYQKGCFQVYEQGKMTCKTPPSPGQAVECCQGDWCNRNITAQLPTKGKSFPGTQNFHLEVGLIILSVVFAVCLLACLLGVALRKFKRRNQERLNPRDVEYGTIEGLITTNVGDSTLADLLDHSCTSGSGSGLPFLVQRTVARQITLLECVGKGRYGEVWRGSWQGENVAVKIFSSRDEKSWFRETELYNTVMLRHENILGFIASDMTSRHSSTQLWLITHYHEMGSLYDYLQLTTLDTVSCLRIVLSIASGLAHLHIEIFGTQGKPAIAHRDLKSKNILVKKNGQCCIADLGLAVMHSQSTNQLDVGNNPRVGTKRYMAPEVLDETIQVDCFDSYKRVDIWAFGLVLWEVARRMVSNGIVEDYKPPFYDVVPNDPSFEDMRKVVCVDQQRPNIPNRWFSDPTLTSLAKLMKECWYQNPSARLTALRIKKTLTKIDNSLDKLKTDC

[8] = biological target: Platelet-derived growth factor receptor alpha (Homo sapiens, UniProt P16234); assay: Selectivity interaction (KinomeScan (DiscoverX)) EUB0001619a PDGFRA; settings: at 1 µM
Platelet-derived growth factor receptor alpha, sequence (P16234 whole entry): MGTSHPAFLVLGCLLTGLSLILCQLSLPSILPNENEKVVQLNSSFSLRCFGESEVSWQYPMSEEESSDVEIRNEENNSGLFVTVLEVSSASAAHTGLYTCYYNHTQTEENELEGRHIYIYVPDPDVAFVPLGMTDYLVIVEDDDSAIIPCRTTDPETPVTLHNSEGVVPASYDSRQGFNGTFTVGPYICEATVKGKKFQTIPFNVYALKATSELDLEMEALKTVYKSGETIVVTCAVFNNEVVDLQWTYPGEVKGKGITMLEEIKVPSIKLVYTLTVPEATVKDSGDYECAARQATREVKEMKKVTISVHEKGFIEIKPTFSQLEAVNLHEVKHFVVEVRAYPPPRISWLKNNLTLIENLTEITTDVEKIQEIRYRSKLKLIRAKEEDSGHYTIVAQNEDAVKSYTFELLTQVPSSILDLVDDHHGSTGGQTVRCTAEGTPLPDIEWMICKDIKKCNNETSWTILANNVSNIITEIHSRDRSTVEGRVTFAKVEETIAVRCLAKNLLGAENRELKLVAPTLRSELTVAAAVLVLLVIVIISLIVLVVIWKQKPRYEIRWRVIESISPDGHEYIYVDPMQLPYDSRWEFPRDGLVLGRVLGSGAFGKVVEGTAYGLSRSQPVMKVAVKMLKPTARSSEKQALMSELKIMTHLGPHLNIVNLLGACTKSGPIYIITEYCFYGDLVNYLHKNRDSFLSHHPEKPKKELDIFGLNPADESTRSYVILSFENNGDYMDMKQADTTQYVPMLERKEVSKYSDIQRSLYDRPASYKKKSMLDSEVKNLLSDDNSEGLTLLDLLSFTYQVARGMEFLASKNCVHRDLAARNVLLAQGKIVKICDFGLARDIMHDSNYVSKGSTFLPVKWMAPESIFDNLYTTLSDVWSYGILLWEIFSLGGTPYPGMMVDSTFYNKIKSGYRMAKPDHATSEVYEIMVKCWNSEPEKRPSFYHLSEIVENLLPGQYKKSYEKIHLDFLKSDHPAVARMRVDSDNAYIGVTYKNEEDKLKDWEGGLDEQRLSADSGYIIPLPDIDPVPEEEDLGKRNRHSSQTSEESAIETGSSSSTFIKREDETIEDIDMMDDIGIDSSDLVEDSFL

- % of inhibition [1]: 142%
SMILES: CC[C@@H](Nc1c(C#N)c(-c2ccc(-c3cccc(C)c3F)cc2)nc2cnccc12)C(=O)O [BAY-091]

- % of inhibition [2]: 32%
SMILES: Cc1ccc(-c2ccc3c(ccc4sc5c(c43)NC[C@@H](C)NC5=O)n2)cn1

- % of inhibition [3]: -15.6%
- % of inhibition [4]: -4.5%
SMILES: CC[C@@H]1[C@H](F)C(=O)N[C@@H]1COc1nccc2cc(C(N)=O)c(OC)cc12 [ZIMLOVISERTIB]

SMILES: COCCN1CCC(c2cc(CN(C)C(=O)c3cccc(Oc4ccccc4)c3)ccn2)CC1
- % activity ([5]; at 1 µM): > 95%
- % activity ([5]; at 10 µM): > 90%

SMILES: Cc1cc([C@@H](C)Nc2ccccc2C(=O)O)c2nc(N3CCOCC3)cc(=O)n2c1 [AZD-6482]
- % of control [6]: 100%

SMILES: O[C@H]1CC[C@H](Nc2ncc3nc(Nc4c(F)cc(F)cc4F)n([C@H]4CCOC4)c3n2)CC1
- % of control [7]: 100%

SMILES: N#Cc1cccc(-c2c[nH]c3ncnc(N4CCOCC4)c23)c1
- % of control [8]: 100%
